According to patent US10945972B2, “Particulate materials” (Nektar Therapeutics, priority 2002, dated 2021):

How the values were obtained:
Type in all cases: physicochemical
[1] = Isothermal microcalorimetry, TAM with RH ramp (Example 8); settings: 25° C., RH ramp 0 to 90% at 3% RH/hr; listed as TBS2
Protocol: A Thermal Activity Monitor (TAM, model 2277; Thermometric A B, Jrflla, Sweden) was used to measure the calorimetric heat flow (μW) vs. % RH profile of each sample. A RH-perfusion cell (Model 2255-120) accessory for the TAM was used to control RH within the sample vessel. The carrier gas, dry N2, was flowed at a constant rate (1.48 cm^3/min). All experiments were performed at 25° C. About 100 to 105 mg accurately weighed of each powder were placed in a stainless steel ampoule, attached to the RH perfusion cell, and then dried under 0% RH until a stable heat flow signal was reached (e.g., a signal within the range of −1 to +1 μW). The RH was then increased in a linear ramp from 0 to 90% over the following 30 hours (i.e., 3% RH/hr). The heat flow arising from interactions of water vapor with the solid sample was measured as a function of time. Since RH changed with time in a linear fashion, the heat flow was also known as a function of RH.
The TAM measures the total heat flow in power, P, produced from either a physical or chemical reaction. In this study, the calorimetric power is proportional to the rate of moisture sorption or desorption, crystallization, and/or other processes. Exothermic events are measured as a deflection in the positive y-axis direction. Although crystallization is an exothermic process, it can be observed as a net endothermic process. During crystallization, there is an exotherm due to crystallization and a simultaneous endotherm due to desorption of previously sorbed moisture. The TAM profile gives the resultant of these processes.

[2] = Inverse gas chromatography surface energy (Example 1); settings: 303K
Source text: For TBS and FHBr powders, IGC was done using a Hewlett Packard Series 6890 instrument which was specifically modified for IGC measurements by Surface Measurement Systems Ltd (Manchester, UK). The IGC method is described in detail by Tong et al. 2001. (Tong H. H. Y., B. Y. Shekunov, P. York, A. H. L. Chow, 2001. Pharm. Res. 18, 852.) Triplicate measurements in separate packed columns were made. […] The γS^D and ΔGA values were obtained at 303K.

[3] = Particle size by Helos/Rodos laser diffraction (Example 1); settings: geometric projection-equivalent volume mean diameter
Protocol: (§1) PSD measurements were performed using firstly, AEROSIZER® time-of-flight instrument equipped with AERO-[…]® (TSI Inc., Minneapolis. USA) and secondly, laser diffraction sensor Helos with dry-powder air-dispersion system Rodos (Sympatec GmbH. Germany). The volume mean particle diameter, VMD, was obtained for both instruments using software options. In the general case of non-spherical particles, these instruments cannot provide the exact value of VMD, however, the time-of-flight technique gives an aerodynamic-equivalent particle diameter, whereas the laser diffraction method provides the geometric projection-equivalent diameter. These diameters afford the complementary information on PSD and therefore can be used for comparative size analysis.

[4] = Laser diffraction HELOS/RODOS of TBS (Example 8); settings: 2 bar, listed as TBS 2
Protocol: A small amount of TBS powder was analysed using a laser diffraction RODOS/VIBRI dispersing system (HELOS/RODOS, Sympatec GmbH, Clausthal-Zellerfeld, Germany). The instrument consisted of a laser sensor HELOS and a RODOS dry-powder air-dispersion system (Sympatec GmbH, Clausthal-Zellerfeld, Germany). Different measurement ranges of the laser sensor were provided by interchangeable objectives R1 (0.1-35 μm) and R2 (0.25-87.5 μm). The rate of powder dispersion was controlled by adjusting the pressure of the compressed air flow. A pressure of 2 bar was sufficient to achieve deagglomeration of primary particles without attrition.

[5] = Particle size by AeroSizer time-of-flight (Example 1); settings: aerodynamic-equivalent volume mean diameter
Protocol: as §1

[6] = AEROFLOW powder avalanching (Example 8); settings: listed as TBS 2
Protocol: An AEROFLOW™ powder avalanching apparatus (Amherst Process Instruments, API, Amherst, USA) was employed to analyze the dynamic avalanching behaviour of micronized and SC processed TBS samples. The AEROFLOW™ apparatus consists of a transparent rotating drum with a port at the front. A white light source is positioned in front of the drum and a masked array of photocells is behind the drum. To measure avalanching, 50 ml of the drug powder was added to the drum, which is about 15% of its total volume to ensure good powder mixing during the operation. As the drum rotates, the powder bed is carried upwards until an unstable state is reached and an avalanche occurs.
The time between successive avalanches was recorded by the projection of the light beam through the drum onto the photocell array. The photocells generated a voltage dependent on the amount of light falling on the cells and the area of unmasked photocells shielded from the light source by the powder. The voltage output (transmitted light intensity) was recorded by a computer, which translates the output as powder movement using a technique disclosed in B. H. Kaye. Characterizing the flowability of a powder using the concepts of fractal geometry and chaos theory, Part. Part. Charact. 14: 53-66 (1997). Each TBS sample was tested in duplicate and mean avalanche time and irregularity (scatter) of avalanches were recorded.

[7] = AEROSIZER time-of-flight of TBS (Example 8); settings: listed as TBS 2
Protocol: The TBS samples were also analysed using an AEROSIZER™ (Amherst Process Instruments, Amherst, Mass., USA), provided with pulse jet disperser, the AERODISPERSER™, to introduce the powders to the instrument. The measurement range of the AEROSIZER™ is nominally from 0.2 to 200 μm of aerodynamic diameter with the standard 750 μm diameter tapered nozzle. The micronized and SEDS™ TBS samples were analyzed for 300 seconds in triplicate using normal deagglomeration conditions, feed rate (5000 particles per second) and medium shear force (0.5 psi).

Q: With `CC(C)(C)NCC(O)c1cc(O)cc(O)c1` (stereo not drawn) [TSB SEDS, terbutaline sulphate] as the compound, how does the “RH of thermal event in TAM profile” value [1] read?
A: about 85 % RH

Q: What about the “γs^D (mJ/m^2)” value [2] of the same compound?
A: 55.05 mJ/m^2

Q: And the “ΔGA (kJ/mol) Acetone” value ([2]; probe acetone)?
A: 10.42 kJ/mol

Q: And the “ΔGA (kJ/mol) Chloroform” value ([2]; probe chloroform)?
A: 1.21 kJ/mol

Q: And the “ΔGA (kJ/mol) Dioxane” value ([2]; probe dioxane)?
A: 14.20 kJ/mol

Q: What about the “ΔGA (kJ/mol) Ethyl acetate” value ([2]; probe ethyl acetate) of the same compound?
A: 13.76 kJ/mol

Q: What about the “ΔGA (kJ/mol) Toluene” value ([2]; probe toluene) of the same compound?
A: 2.85 kJ/mol

Q: What about the “VMD (μm) (laser diffraction)” value [3] of the same compound?
A: 3.43 μm

Q: What about the “Sympatec D4, 3 (μm)” value [4] of the same compound?
A: 3.43 μm

Q: And the “VMD (μm) (Time of flight)” value [5]?
A: 3.4 μm

Q: What about the “Irregularity of flow” value ([6]; 100 sec/rev) of the same compound?
A: 1.17 s

Q: What about the “Mean time to avalanche” value ([6]; 100 sec/rev) of the same compound?
A: 3.30 s

Q: What about the “Irregularity of flow” value ([6]; 145 sec/rev) of the same compound?
A: 2.12 s

Q: What about the “Mean time to avalanche” value ([6]; 145 sec/rev) of the same compound?
A: 4.91 s

Q: And the “Aerosizer D4, 3 (μm)” value [7]?
A: 3.44 μm
